Results: patent US20230416239A1, “COMPOUNDS AND METHODS FOR TREATING A CYTOKINE-MEDIATED DISEASE” (CONSERVATOIRE NATIONAL DES ARTS ET MÉTIERS, priority 2020, published 2023)
pIC50: −log10 of the molar value.

Legend:
TNFα = TNFα (Homo sapiens, UniProt P01375); test: Immunoassay binding test, TNFa; details: compounds 100 to 0.78 μM; TNFα 10 ng/ml, receptor 100 ng/ml; read-out: BINDING TNF IC50
Experimental: Microtiter plates (96 wells) are covered with 100 μl of receptor per well, and incubated overnight at 4° C. The following day, after 2 washes in PBS/Tween20, the plates are saturated with 150 μl of PBS/BSA 2% per well, for 2 h at 37° C. […] The cytokine is diluted in series (six concentrations) in a final volume of 120 μl per well. […] The different mixtures are incubated for 2 h at 37° C. 100 μl of each mixture are then transferred to the microtiter plate, respecting the plate plan previously defined and incubated overnight at 4° C. After three washes, 100 μl of biotinylated anti-cytokine secondary antibody are added to each well, then incubated for 2 h at 37° C. After three washes, 100 μl of Avidin-HRP (1/500th dilution) are added and incubated for 30 minutes at 37° C. […] The plates are then read with a spectrophotometer at 450 nm, measuring the optical density for each well.
This binding test is carried out with different cytokines: TNFa, IL-4, IL-6 and IL-13. For IL-6, the incubation of molecules with the cytokine also requires the presence of IL-6Ra at a final concentration of 200 ng/ml.
The final concentrations used for each of the cytokines are presented below: […]

TNFa/TNFRI interaction = TNFa/TNFRI interaction (Homo sapiens, UniProt P01375); test: TNFa/TNFRI interaction displacement test; assay type: binding; details: compounds at 50 μM; human TNFRI 100 ng/ml
Experimental: Microtiter plates (96 wells) are covered with 100 μl per well of human TNFRI, at a concentration of 100 ng/ml, then incubated overnight at 4° C. The following day, after two washes in PBS/Tween20, the plates are saturated with 150 μl of PBS/BSA 2% for 2 h at 37° C.
100 μl of each mixture are then transferred to the microtiter plate, respecting the established plate plan and incubated overnight at 4° C.
After three washes, 100 μl of biotinylated anti-cytokine secondary antibody are added to each well and incubated for 2 h at 37° C. After three washes, 100 Avl Avidin-HRP (dilution 1/500th) are added and incubated for 30 minutes at 37° C. […] The plates are then read with a spectrophotometer at 450 nm, measuring the optical density (OD) for each well.

TNFa/TNFRI interaction, sequence (P01375 77-233 limits assumed): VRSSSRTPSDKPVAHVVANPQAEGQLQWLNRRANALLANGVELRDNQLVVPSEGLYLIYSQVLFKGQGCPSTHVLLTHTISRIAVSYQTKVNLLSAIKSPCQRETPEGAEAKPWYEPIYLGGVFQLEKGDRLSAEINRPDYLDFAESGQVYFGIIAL
TNFα, sequence (P01375 77-233 limits assumed, species assumed): as the sequence (P01375 77-233 limits assumed) above

## CN(CCCCN(Cc1cccnc1F)Cc1cn(S(=O)(=O)N2CCCC2)c2ccccc12)C1CCCCC1 [Compound 110, N1-cyclohexyl-N4-((2-fluoropyridin-3-yl)methyl)-N1-methyl-N4-((1-(pyrrolidin-1-ylsulfonyl)-1H-indol-3-yl)methyl)butane-1,4-diamine]
TNFα
  pIC50: 4.77
TNFa/TNFRI interaction
  Displacement (%): 83%

## CCCN(CCCCN(Cc1cccnc1F)Cc1cn(S(=O)(=O)c2ccccc2)c2ccccc12)C1CCCCC1 [Compound 67, N′-cyclohexyl-N^4-((2-fluoropyridin-3-yl)methyl)-N^4-((1-(phenylsulfonyl)-1H-indol-3-yl)methyl)-N′-propylbutane-1,4-diamine]
TNFα
  pIC50: 5.17
TNFa/TNFRI interaction
  Displacement (%): 219%

## O=S(=O)(c1ccccc1)n1cc(CN(CCCCNC2CCCCC2)Cc2ccc(F)nc2)c2ccccc21 [Compound 55, N1-cyclohexyl-N4-((6-fluoropyridin-3-yl)methyl)-N4-((1-(phenylsulfonyl)-1H-indol-3-yl)methyl)butane-1,4-diamine]
TNFα
  pIC50: 5.11
TNFa/TNFRI interaction
  Displacement (%): 172%

## O=S(=O)(c1ccccc1)n1cc(CN(CCCCCNC2CCCCC2)Cc2cccnc2F)c2ccccc21 [Compound 46, N1-cyclohexyl-N5-((2-fluoropyridin-3-yl)methyl)-N5-((1-(phenylsulfonyl)-1H-indol-3-yl)methyl)pentane-1,5-diamine]
TNFα
  pIC50: 4.97
TNFa/TNFRI interaction
  Displacement (%): 124%

## CN1CCN(S(=O)(=O)n2cc(CN(CCOCCN(C)C3CCCCC3)Cc3cccnc3F)c3ccccc32)CC1 [Compound 111, N-(2-(2-(((2-fluoropyridin-3-yl)methyl)((1-((4-methylpiperazin-1-yl)sulfonyl)-1H-indol-3-yl)methyl)amino)ethoxy)ethyl)-N-methylcyclohexanamine]
TNFα
  pIC50: 5.22
TNFa/TNFRI interaction
  Displacement (%): 224%

## CN(CCOCCN(Cc1cccnc1F)Cc1cn(S(=O)(=O)N2CCCCC2)c2ccccc12)C1CCCCC1 [Compound 112, N-(2-(2-(((2-fluoropyridin-3-yl)methyl) ((1-(piperidin-1-ylsulfonyl)-1H-indol-3-yl)methyl)amino)ethoxy)ethyl)-N-methylcyclohexanamine]
TNFα
  pIC50: 4.89
TNFa/TNFRI interaction
  Displacement (%): 245%

## CN(CCCCN(Cc1ccc(F)nc1)Cc1cn(S(=O)(=O)c2ccccc2)c2ccccc12)C1CCCCC1 [Compound 57, N1-cyclohexyl-N4-((6-fluoropyridin-3-yl)methyl)-N1-methyl-N4-((1-(phenylsulfonyl)-1H-indol-3-yl)methyl)butane-1,4-diamine]
TNFα
  pIC50: 5.03
TNFa/TNFRI interaction
  Displacement (%): 113%

## O=S(=O)(c1ccccc1)n1cc(CN(CCCCCNCc2ccnc(F)c2)Cc2ccnc(F)c2)c2ccccc21 [Compound 61]
TNFα
  pIC50: 4.53
TNFa/TNFRI interaction
  Displacement (%): 64%

## O=S(=O)(c1ccccc1)n1cc(CN(CCCCNC2CCCCC2)Cc2ccnc(F)c2)c2ccccc21 [Compound 44, N1-cyclohexyl-N4-((2-fluoropyridin-4-yl)methyl)-N4-((1-(phenylsulfonyl)-1H-indol-3-yl)methyl)butane-1,4-diamine]
TNFα
  pIC50: 5.07
TNFa/TNFRI interaction
  Displacement (%): 109%
